The results in this text go back to ChEMBL document CHEMBL1152915, “The inhibitory mechanism of a novel cationic glucosamine derivative against MMP-2 and MMP-9 expressions” (Bioorg Med Chem Lett, 2009).

Active and inactive are the calls of the source. No cut-off for these calls is given here.

Data set [1] has as its target Matrix metalloproteinase-9 (Homo sapiens) (UniProt P14780). As to the kind of experiment: Inhibition of MMP9 gene promoter activity in phorbol myristate acetate-stimulated human HT1080 cells at 60 ug/ml by luciferase reporter gene assay relative to control. In kind it is cell-based. The conditions noted are these: HT-1080. For orientation: In a reporter assay the amount or activity of a reporter protein is the signal.

For data set [2], the system named is HT-1080. Put plainly: Inhibition of p38 expression in phorbol myristate acetate-stimulated human HT1080 cells at 60 ug/ml by Western blotting relative to control. In kind it is functional, cell-based. For orientation: In western blotting, separated proteins are transferred to a membrane and probed.
Data set [3] addresses 72 kDa type IV collagenase (Homo sapiens) (UniProt P08253). Put plainly: Reduction of gelatinolytic activity of MMP2 in phorbol myristate acetate-stimulated human HT1080 cells at 40 and 60 ug/ml. In kind it is cell-based. As to conditions: HT-1080.
The target is the same in data set [4]. Put plainly: Inhibition of MMP2 gene promoter activity in phorbol myristate acetate-stimulated human HT1080 cells by luciferase reporter gene assay. The data set is classed as cell-based. The conditions noted are these: HT-1080.
The target in data set [5] is Matrix metalloproteinase-9 (Homo sapiens) (UniProt P14780). As to the kind of experiment: Inhibition of MMP9 gelatinolytic activity in phorbol myristate acetate-stimulated human HT1080 cells at 60 ug/ml by gelatin zymography relative to control. The data set is classed as cell-based. As to conditions: HT-1080.
Sequence of Matrix metalloproteinase-9 (Homo sapiens) (P14780 whole entry): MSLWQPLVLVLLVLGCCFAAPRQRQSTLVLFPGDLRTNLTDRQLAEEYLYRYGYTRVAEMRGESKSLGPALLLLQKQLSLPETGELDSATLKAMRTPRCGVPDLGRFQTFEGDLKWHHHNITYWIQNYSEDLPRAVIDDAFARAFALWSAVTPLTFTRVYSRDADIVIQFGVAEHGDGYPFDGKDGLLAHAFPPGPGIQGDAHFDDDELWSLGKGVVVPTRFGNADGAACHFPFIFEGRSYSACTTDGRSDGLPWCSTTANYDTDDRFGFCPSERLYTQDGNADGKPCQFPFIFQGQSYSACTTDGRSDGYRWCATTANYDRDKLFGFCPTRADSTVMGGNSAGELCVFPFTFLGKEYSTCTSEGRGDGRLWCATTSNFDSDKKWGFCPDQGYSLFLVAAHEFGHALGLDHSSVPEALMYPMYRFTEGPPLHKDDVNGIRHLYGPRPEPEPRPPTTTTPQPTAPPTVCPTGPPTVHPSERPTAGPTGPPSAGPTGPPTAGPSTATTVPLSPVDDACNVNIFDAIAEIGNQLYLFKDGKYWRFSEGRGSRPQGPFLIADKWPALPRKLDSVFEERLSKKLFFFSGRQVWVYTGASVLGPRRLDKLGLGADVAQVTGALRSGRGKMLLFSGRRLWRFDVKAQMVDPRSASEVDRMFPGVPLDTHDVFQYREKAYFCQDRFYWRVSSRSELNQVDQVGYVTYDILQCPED
For data set [6], the target named is 72 kDa type IV collagenase (Homo sapiens) (UniProt P08253). As to the kind of experiment: Inhibition of MMP2 in phorbol myristate acetate-stimulated human HT1080 cells by gelatin zymography relative to control. In kind it is cell-based. As to conditions: HT-1080.
Sequence of 72 kDa type IV collagenase (Homo sapiens) (P08253 110-660 limits assumed): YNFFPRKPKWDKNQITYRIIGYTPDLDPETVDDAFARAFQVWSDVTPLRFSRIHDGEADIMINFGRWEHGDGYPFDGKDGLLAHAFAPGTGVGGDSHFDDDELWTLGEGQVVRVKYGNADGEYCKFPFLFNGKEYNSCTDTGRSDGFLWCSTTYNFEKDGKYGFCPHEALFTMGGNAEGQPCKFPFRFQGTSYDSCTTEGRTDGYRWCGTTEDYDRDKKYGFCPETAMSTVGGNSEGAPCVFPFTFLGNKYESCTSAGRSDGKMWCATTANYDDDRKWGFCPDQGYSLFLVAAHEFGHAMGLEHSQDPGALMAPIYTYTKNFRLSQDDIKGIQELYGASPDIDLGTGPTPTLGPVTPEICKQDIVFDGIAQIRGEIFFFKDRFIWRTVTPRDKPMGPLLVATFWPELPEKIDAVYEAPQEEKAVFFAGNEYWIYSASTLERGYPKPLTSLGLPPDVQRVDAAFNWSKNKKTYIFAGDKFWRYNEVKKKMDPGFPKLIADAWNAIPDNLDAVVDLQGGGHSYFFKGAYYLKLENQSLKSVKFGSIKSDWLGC
Data set [7] concerns HT-1080. Put plainly: Suppression of NF-kappaB p65 subunit expression in phorbol myristate acetate-stimulated human HT1080 cell nucleus by Western blotting relative to control. In kind it is functional, cell-based.
The target in data set [8] is Matrix metalloproteinase-9 (Homo sapiens) (UniProt P14780). Put plainly: Inhibition of MMP9 gelatinolytic activity in human HT1080 cells at upto 60 ug/ml by gelatin zymography relative to control. In kind it is cell-based. As to conditions: HT-1080.
Data set [9] has as its system HT-1080. Put plainly: Cytotoxicity against human HT1080 cells assessed as cell viability at upto 60 ug/ml. The data set is classed as cell-based.
In data set [10] the target is Matrix metalloproteinase-9 (Homo sapiens) (UniProt P14780). As to the kind of experiment: Reduction of gelatinolytic activity of MMP9 in phorbol myristate acetate-stimulated human HT1080 cells at 40 and 60 ug/ml. The data set is classed as cell-based. The conditions noted are these: HT-1080.
In data set [11] the target is 72 kDa type IV collagenase (Homo sapiens) (UniProt P08253). Put plainly: Inhibition of MMP2 gene promoter activity in phorbol myristate acetate-stimulated human HT1080 cells at 60 ug/ml by luciferase reporter gene assay relative to control. The data set is classed as cell-based. As to conditions: HT-1080.
Data set [12] relates to HT-1080. Put plainly: Inhibition of NF-kappaB gene promoter activity in phorbol myristate acetate-stimulated human HT1080 cells at 60 ug/ml by luciferase reporter gene assay. The data set is classed as cell-based.
Data set [13] concerns the target 72 kDa type IV collagenase (Homo sapiens) (UniProt P08253). Put plainly: Inhibition of MMP2 gelatinolytic activity in human HT1080 cells at upto 60 ug/ml by gelatin zymography relative to control. As to conditions: HT-1080. The data set is classed as cell-based.
Data set [14] relates to HT-1080. As to the kind of experiment: Inhibition of JNK expression in phorbol myristate acetate-stimulated human HT1080 cells at 60 ug/ml by Western blotting relative to control. The data set is classed as functional, cell-based.
Data set [15] has as its system HT-1080. Put plainly: Suppression of NF-kappaB p65 subunit expression in phorbol myristate acetate-stimulated human HT1080 cell cytoplasm by Western blotting relative to control. The data set is classed as functional, cell-based.
Data set [16] concerns the target Matrix metalloproteinase-9 (Homo sapiens) (UniProt P14780). As to the kind of experiment: Inhibition of MMP9 gene promoter activity in phorbol myristate acetate-stimulated human HT1080 cells by luciferase reporter gene assay. In kind it is cell-based. The conditions noted are these: HT-1080.
In data set [17] the test system is HT-1080. As to the kind of experiment: Inhibition of cell migration in human HT1080 cells at 60 ug/ml. The data set is classed as functional.
Data set [18] concerns HT-1080. Put plainly: Suppression of AP1 c-FOS subunit expression in phorbol myristate acetate-stimulated human HT1080 cell cytoplasm by Western blotting relative to control. The data set is classed as functional, cell-based.
For data set [19], the system named is HT-1080. Put plainly: Suppression of TIMP2 expression in phorbol myristate acetate-stimulated human HT1080 cells by Western blotting relative to control. The data set is classed as functional, cell-based.
In data set [20] the target is Transcription factor Jun (Homo sapiens) (UniProt P05412). As to the kind of experiment: Inhibition of AP1 gene promoter activity in phorbol myristate acetate-stimulated human HT1080 cells at 60 ug/ml by luciferase reporter gene assay. The data set is classed as cell-based. The conditions noted are these: HT-1080.
Sequence of Transcription factor Jun (Homo sapiens) (P05412 whole entry): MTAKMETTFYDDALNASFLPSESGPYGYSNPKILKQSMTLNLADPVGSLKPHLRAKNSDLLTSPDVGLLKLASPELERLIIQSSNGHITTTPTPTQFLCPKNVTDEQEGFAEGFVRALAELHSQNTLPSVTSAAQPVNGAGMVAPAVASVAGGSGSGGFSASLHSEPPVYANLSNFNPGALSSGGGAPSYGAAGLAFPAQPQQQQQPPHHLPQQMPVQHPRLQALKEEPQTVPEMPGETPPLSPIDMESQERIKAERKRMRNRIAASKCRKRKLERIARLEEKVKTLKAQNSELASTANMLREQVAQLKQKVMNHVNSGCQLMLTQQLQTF
Data set [21] relates to HT-1080. As to the kind of experiment: Inhibition of ERK expression in phorbol myristate acetate-stimulated human HT1080 cells at 60 ug/ml by Western blotting relative to control. On the set-up: scale not given: the % may be the effect or the level left. In kind it is functional.
Data set [22] deals with Matrix metalloproteinase-9 (Homo sapiens) (UniProt P14780). As to the kind of experiment: Inhibition of MMP9 in phorbol myristate acetate-stimulated human HT1080 cells by gelatin zymography relative to control. In kind it is cell-based. As to conditions: HT-1080.
For data set [23], the system named is HT-1080. As to the kind of experiment: Suppression of MMP2 expression in phorbol myristate acetate-stimulated human HT1080 cells by Western blotting relative to control. The data set is classed as functional, cell-based.
The subject of data set [24] is HT-1080. As to the kind of experiment: Suppression of AP1 c-FOS subunit expression in phorbol myristate acetate-stimulated human HT1080 cell nucleus by Western blotting relative to control. The data set is classed as functional, cell-based.
Data set [25] deals with HT-1080. Put plainly: Antiinvasive activity in human HT1080 cells at 20 ug/ml after 48 hrs. The data set is classed as functional.
In data set [26] the target is 72 kDa type IV collagenase (Homo sapiens) (UniProt P08253). As to the kind of experiment: Inhibition of MMP2 gelatinolytic activity in phorbol myristate acetate-stimulated human HT1080 cells at 60 ug/ml by gelatin zymography relative to control. The data set is classed as cell-based. The conditions noted are these: HT-1080.
In data set [27] the test system is HT-1080. Put plainly: Suppression of MMP9 expression in phorbol myristate acetate-stimulated human HT1080 cells by Western blotting relative to control. The data set is classed as functional, cell-based.
Data set [28] deals with HT-1080. Put plainly: Suppression of TIMP1 expression in phorbol myristate acetate-stimulated human HT1080 cells by Western blotting relative to control. In kind it is functional, cell-based.
Data set [29] concerns HT-1080. As to the kind of experiment: Antiinvasive activity in human HT1080 cells at 60 ug/ml after 48 hrs. In kind it is functional, cell-based.

On to `C[N+](C)(C)CC(O)CN[C@@H]1[C@@H](O)[C@H](O)[C@@H](CO)O[C@H]1O` (stereo partly drawn), for which the fold change (FC) in data set [1] and in [11] was 3 each time. For the same compound, the inhibition result in [2], in [6], in data set [14] and in data set [22] was “Active” each time. Further, the result in data set [3], in [7], in data set [10], in data set [15], in [18] and in data set [24] was Active. The inhibition entry in data set [4] was “Dose-dependent effect”; in data set [5] it was 50%; in [12] it was 65%; in data set [16] it was “Dose-dependent effect”; in data set [20], 60%; in [26], 62%. Also, the inhibition entry in [8] and in data set [13] was “inactive” throughout. For the same compound, the Activity entry is “Non-toxic” in data set [9]; 60% in data set [21]; “Dose-dependent effect” in data set [23]; 50% in data set [25]; “Dose-dependent effect” in data set [27]. In data set [17], this compound gave an inhibition at 60 µg/mL of 70%. For the same compound, the outcome in [19] and in [28] was inactive.

Regarding `C[C@H]1c2cccc(O)c2C(=O)C2=C(O)[C@]3(O)C(=O)C(C(N)=O)=C(O)[C@@H](N(C)C)[C@@H]3[C@@H](O)[C@@H]21`, the inhibition result in [8] and in data set [13] was “inactive” each time.

Turning to `N[C@H]1C(O)O[C@H](CO)[C@@H](O)[C@@H]1O` (stereo partly drawn), the inhibition result in [5] and in data set [26] was “inactive” throughout. Moreover, the result in [29] was inactive.

One may read the inhibition as the change of the read-out against control, counted positive when it falls.
